Data taken from patent publication US20220062205A1, “TREATMENT OF GASTROINTESTINAL DISORDERS AND SYMPTOMS THEREOF” (Indiana University Research and Technology Corporation, priority 2018, published 2022).

How the values were obtained:
Format in all cases: in vivo, mouse
Winnie mice [1] = experiment: Superoxide production in the myenteric plexus (MitoSOX Red); settings: distal colon myenteric plexus; mean±SEM, n=4
Protocol: The small molecular APE1/Ref-1 antagonist; APX3330, was administered via IP injections in Winnie mice at a dose of 25 mg/kg (30 G needle, max volume 200 μl) dissolved in Cremphore (2%) (Sigma-Aldrich): Ethanol (2%) in sterile water (96%). Mice received alternating IP injections twice a day with 12-hour intervals, over the course of two weeks during predominate intestinal inflammation. Winnie-sham treated mice received vehicle injections excluding APX3330 drugs. All mice were monitored, weighed and faecal pellets were collected over the course of treatment. MITOSOX™ Red M36008 (Invitrogen, Australia), acquired mitochondrial-derived production of superoxide in the myenteric ganglia. Briefly, distal colon preparations from control C57BL/6, Winnie-sham treated and Winnie-APX3330 treated mice freshly excised to expose the myenteric plexus. Samples were incubated at 37° C. for 40 minutes with 5 μM MITOSOX™ Red M36008. Tissues were washed with oxygenated physiological saline and fixed with Zamboni's fixative for 1-hour followed by (3×10 minute) 1×PBS washes. Prepared tissues were mounted on glass slides with DAKO fluorescent a mounting medium for imaging Images were captured as previously described above. Images were converted into binary and changes in fluorescence were measured in arbitrary units (arb. Units) relative to ganglion area using ImageJ software (National Institute of Health).

Winnie mice [2] = experiment: Immunohistochemistry and histology of distal colon (cross sections and LMMP)
Protocol: The small molecular APE1/Ref-1 antagonist; APX3330, was administered via IP injections in Winnie mice at a dose of 25 mg/kg (30 G needle, max volume 200 μl) dissolved in Cremphore (2%) (Sigma-Aldrich): Ethanol (2%) in sterile water (96%). Mice received alternating IP injections twice a day with 12-hour intervals, over the course of two weeks during predominate intestinal inflammation. Winnie-sham treated mice received vehicle injections excluding APX3330 drugs. All mice were monitored, weighed and faecal pellets were collected over the course of treatment.
Distal colon tissues were harvested in oxygenated physiological saline, flushed of faecal content and cut along the mesenteric border. Tissues were pinned down with mucosal side upwards in a Slygard-lined petri dish and were briefly fixed with Zamboni's fixative (2% formaldehyde containing 0.2% picric acid) over night at 4° C. Zamboni's fixative was removed by a serial of washes (3×10 minutes) with dimethyl sulfoxide (DMSO) (Sigma-Aldrich, Sydney, Australia) followed by (3×10 minutes) with 1× phosphate buffered solution (PBS). Tissues were processed for cross sections wholemount longitudinal muscle-myenteric preparations (LMMP). For histological staining, β-tubulin III and α-Smooth muscle actin (SMA) labelling distal colon tissues were pinned and fixed as above without stretching and stored in 50:50 optimum cutting temperature (OCT) compound (Tissue Tek, CA, USA) and frozen in liquid nitrogen-cooled isopentane and OCT and stored at −80° C. until cryo-sectioned (20 μm) onto glass slides for immunohistochemistry (IHC). For immunolabeling glial fibrillary acidic protein (GFAP), microtubule associated protein-2 (MAP2), HMGB1 and APE1, the distal colon LMMPs were stretched to maximum capacity without tearing in Slygard-lined petri dishes and were subjected to fixation and washes as above. To expose the myenteric plexus, removal of mucosa, submucosa and circular muscle was performed prior to IHC.
Immunohistochemistry (IHC) was completed. Specimens were subjected to a one hour incubation at room temperature with 10% normalised donkey serum (NDS) (Merck Millipore, Australia) prior to labelling with primary antibodies (Table 2) in distal colon cross sections and LMMPs. Sections and preparation were washed with 1×PBS (3×10 minutes) and then briefly incubated with fluorophore-conjugated secondary antibodies (Table 2). All specimens were stained with 4′,6′-diamindino-2-pheylindole dihydrochloride (DAPI) to identify immunoreactive cells. Tissues were mounted on glass slides with fluorescent mounting medium (DAKO, North, Sydney, NSW, Australia Tissues for histology were cryo-sectioned at 10 μm, cleared and rehydrated in graded ethanol concentration. For standard hematoxylin and eosin stain (H&E) and Alcian blue stain, sections were immersed in histolene (3×4 minutes), 100% ethanol (2 minutes), 95% ethanol (2 minutes), 70% ethanol (2 minutes), rinsed in tap water (30 seconds), then in hematoxylin (Sigma-Aldrich) (1 minute) or Alcian blue (Sigma-Aldrich) (30 minutes), rinsed in tap water, immersed in Scott's tap water (1 minute) and eosin (Sigma-Aldrich) (5 minutes), rinsed in tap water, immersed in 100% ethanol (2×1 minute) and histolene (4 minutes) and finally mounted on glass slides with DPX mountant. A histological grading system evaluated gross morphological damage on constraints inclusive of mucosal flattening (0=normal, 3=severe flattening), manifestations of haemorrhagic sites (0=none, 3=frequent), damage or distortion to circular muscle (0=normal, 3=substantial thickening and disorganization of muscle layer) and loss to goblet cells (0=none, 3=depleted cells). All slides were coded, and analysis was performed blindly.
Confocal microscopy (Nikon Eclipse Ti multichannel confocal laser scanning system, Nikon, Japan) acquired immunolabelled sections. […]

Winnie mice [3] = experiment: RNA sequencing of pooled distal colon; settings: n=6, relative to control C57BL/6 mice
Protocol: The small molecular APE1/Ref-1 antagonist; APX3330, was administered via IP injections in Winnie mice at a dose of 25 mg/kg (30 G needle, max volume 200 μl) dissolved in Cremphore (2%) (Sigma-Aldrich): Ethanol (2%) in sterile water (96%). Mice received alternating IP injections twice a day with 12-hour intervals, over the course of two weeks during predominate intestinal inflammation. Winnie-sham treated mice received vehicle injections excluding APX3330 drugs. All mice were monitored, weighed and faecal pellets were collected over the course of treatment. Control C57BL/6, Winnie-sham treated and Winnie-APX3330 fresh colon tissues were collected and snap frozen into liquid nitrogen. Samples were then sent to the Australian Genome Research Facility (AGRF) where next generation sequencing (NGS) was completed. NGS will be carried out by removing 2-3 μg of RNA per sample (≥100 ng/μl). The integrity of the RNA will be assessed by a Bioanalyzer as samples are to have a RNA integrity number (RIN) value of ≥8.0. The RNA samples went through a DNase treatment ready for library preparation. […] Samples underwent quality and adapter trimming, alignment, quantification and normalization. […] Final data obtained from AGRF were analysed and interpreted to determine APE1/Ref-1 associated pathways.

[4] = LMMP distal colon, mean±SEM, n=6
[5] = distal colon cross sections, mean±SEM, n=5

`CCCCCCCCCC(=CC1=C(C)C(=O)C(OC)=C(OC)C1=O)C(=O)O` [APX3330] was tested, and the “MitoSOX fluorescence (superoxide production) relative to ganglion area” value (Winnie mice [1]) was 19.2±7.5%, the goblet cell density (Winnie mice [2]; Alcian blue, distal colon mucosa, mean±SEM, n=4) was 46.5±4.3% and the histological grading (Winnie mice [2]; H&E / Alcian blue colon cross sections, mean±SEM, n=5) was 4.8±0.7. The “APE1 intensity (immunoreactivity density) in the myenteric ganglia” value (Winnie mice [2]; LMMP colon, mean±SEM, n=4) was 6.0±1.4%, the “expression of Oxo-8dG-IR (oxidative DNA damage) in myenteric ganglia” value (Winnie mice [2]; [4]) was 2.0±0.9% and the “number of myenteric neurons IR for Oxo-8dG” value (Winnie mice [2]; [4]) was 0.9±0.7. For the same compound, the “number of APE1-IR cells” value (Winnie mice [2]; LMMP, compared to control C57BL/6 and Winnie-sham (P<0.01)) was “significantly decreased”, the “gross morphology of the colon (H&E stain)” value (Winnie mice [2]; colon cross sections of treated Winnie mice) was “attenuate damage to the colon” and the “size of α-SMA-immunoreactive smooth muscle cells to nuclear size” value (Winnie mice [2]; distal colon cross sections, circular muscle, mean±SEM, n=5) was 75.7±6.4%. For the same compound, the “number of α-SMA-IR smooth muscle cells within the circular muscle” value (Winnie mice [2]; [5]) was 45.2±3.1, the “β-tubulin (III)-IR nerve fibre density” value (Winnie mice [2]; [5]) was 13.3±0.8 and the “proportional number of MAP2-IR myenteric neurons” value (Winnie mice [2]; myenteric ganglia, LMMP distal colon, mean±SEM, n=7) was 31.9±2.2%. The “number of cells with HMGB1 translocation into the cytosol” value (Winnie mice [2]; myenteric ganglia, LMMP, mean±SEM, n=4) was 0.9±0.3, the “GFAP-IR glial cell density relative to ganglion area” value (Winnie mice [2]; myenteric plexus, LMMP distal colon, mean±SEM, n=4) was 64.2±8.8% and the “down regulation (fold change) of RNA expression of S100a8, Khdc1a, Lrg1, Retnlb, Nos2, Ido1 and REG3B” value (Winnie mice [3]) was > 2.
